Test results from patent US20230092389A1, “UNIT DOSES, AEROSOLS, KITS, AND METHODS FOR TREATING HEART CONDITIONS BY PULMONARY ADMINISTRATION” (InCarda Therapeutics, Inc., priority 2017, published 2023).
Where two headings read alike, the source gives them in different places.

Tested on: healthy volunteers
Conditions: in vivo
Text: 3 cohorts of subjects, in total 34 healthy adult volunteers, were recruited for Part A study.
Part B was an open label non-randomized crossover in a cohort of 6 evaluable healthy adult volunteers.
Adverse events were monitored and recorded.

O=C(NCC1CCCCN1)c1cc(OCC(F)(F)F)ccc1OCC(F)(F)F (stereo not drawn) [flecainide]
Adverse Event: Cough (both, human): 1 | Adverse Event: Lightheadedness (both, human): 1 | Number of Moderate or Severe TEAEs (both, human): 3 | Number of Study Drug Related TEAEs (both, human): 43 | Number of Study Drug Related, Moderate or Severe TEAEs (both, human): 2 | Number of TEAEs (both, human): 59 | Subjects with at least one Moderate or Severe TEAE (both, human): 2 (8) n (%) | Subjects with at least one Study Drug Related TEAE (both, human): 22 (80) n (%) | Subjects with at least one Study Drug Related, Moderate or Severe TEAE (both, human): 1 (4) n (%) | Subjects with at least one TEAE (both, human): 22 (88) n (%) | TEAE: Catheter site pain (both, human): 2 (8) [2] n (%) [events] | TEAE: Cough (both, human): 3 (12) [4] n (%) [events] | TEAE: Diarrhoea (both, human): 2 (8) [2] n (%) [events] | TEAE: Dizziness (both, human): 3 (12) [3] n (%) [events] | TEAE: Dry mouth (both, human): 3 (12) [3] n (%) [events] | TEAE: Dysgeusia (both, human): 2 (8) [2] n (%) [events] | TEAE: Dyspnoea (both, human): 6 (24) [6] n (%) [events] | TEAE: Gastrointestinal disorders (both, human): 8 (32) [11] n (%) [events] | TEAE: General disorders and administration site conditions (both, human): 3 (12) [4] n (%) [events] | TEAE: Headache (both, human): 4 (16) [5] n (%) [events] | TEAE: Nervous system disorders (both, human): 8 (32) [11] n (%) [events] | TEAE: Oropharyngeal discomfort (both, human): 11 (44) [11] n (%) [events] | TEAE: Respiratory, thoracic and mediastinal disorders (both, human): 17 (68) [25] n (%) [events] | duration of the majority of adverse events (both, human): 15 to 90 min | subjects with study-drug related Cough (both, human): 12% | subjects with study-drug related Dizziness (both, human): 12% | subjects with study-drug related Dry mouth (both, human): 12% | subjects with study-drug related Dysgeusia (both, human): 8% | subjects with study-drug related Dyspnoea (shortness of breath) (both, human): 16% | subjects with study-drug related Headache (both, human): 8% | subjects with study-drug related Oropharyngeal discomfort (both, human): 40% | average events per subject (human): 2 | probably study-drug related oropharyngeal discomfort (events) (human): 4 | study-drug related paresthesia oral (events) (human): 3 | TEAE: Hypoaesthesia oral (human, 2 mg/kg): 1 (14) [1] n (%) [events] | TEAE: Paraesthesia oral (human, 2 mg/kg): 3 (43) [3] n (%) [events] | average events per subject (human, iv): 7 | severe and moderate AEs probably related to study drug (human, iv): 1 severe and 2 moderate intensity AEs | study-drug related application site coldness (occurrences) (human, iv): 2 | study-drug related dizziness (events) (human, iv): 6 | study-drug related headache (events) (human, iv): 5 | study-drug related peripheral coldness, palpitations, and chest discomfort, occurrences each (human, iv): 2 | systolic BP in subject whose IV infusion was interrupted for hypotension (human, iv): < 65 mmHg | Number of Moderate or Severe TEAEs (human, iv, 2 mg/kg): 4 | Number of Related TEAEs (human, iv, 2 mg/kg): 35 | Number of Related, Moderate or Severe TEAEs (human, iv, 2 mg/kg): 4 | Number of SAEs (human, iv, 2 mg/kg): 0 | Number of Subjects with at least one Moderate or Severe TEAE (human, iv, 2 mg/kg): 2 (29) n (%) | Number of Subjects with at least one Related TEAE (human, iv, 2 mg/kg): 7 (100) n (%) | Number of Subjects with at least one Related, Moderate or Severe TEAE (human, iv, 2 mg/kg): 2 (29) n (%) | Number of Subjects with at least one SAE (human, iv, 2 mg/kg): 0 n (%) | Number of Subjects with at least one TEAE (human, iv, 2 mg/kg): 7 (100) n (%) | Number of Treatment-Emergent Adverse Events (human, iv, 2 mg/kg): 49 | TEAE: Application site coldness (human, iv, 2 mg/kg): 2 (29) [2] n (%) [events] | TEAE: Catheter site pain (human, iv, 2 mg/kg): 2 (29) [2] n (%) [events] | TEAE: Chest discomfort (human, iv, 2 mg/kg): 1 (14) [3] n (%) [events] | TEAE: Dizziness (human, iv, 2 mg/kg): 6 (86) [6] n (%) [events] | TEAE: Fatigue (human, iv, 2 mg/kg): 2 (29) [2] n (%) [events] | TEAE: Gastrointestinal disorders (human, iv, 2 mg/kg): 5 (71) [6] n (%) [events] | TEAE: General disorders and administration site conditions (human, iv, 2 mg/kg): 4 (57) [13] n (%) [events] | TEAE: Headache (human, iv, 2 mg/kg): 5 (71) [6] n (%) [events] | TEAE: Nervous system disorders (human, iv, 2 mg/kg): 7 (100) [13] n (%) [events] | TEAE: Peripheral coldness (human, iv, 2 mg/kg): 2 (29) [3] n (%) [events] | TEAE: Respiratory, thoracic and mediastinal disorders (human, iv, 2 mg/kg): 2 (29) [3] n (%) [events] | TEAE: Vascular disorders (human, iv, 2 mg/kg): 3 (43) [4] n (%) [events] | fewer TEAEs with IH than IV (human, iv, 2 mg/kg): 4 fold | remaining study-drug related events (cough, dysphonia, dyspnoea, oral hypoesthesia, chest discomfort) (human, po): occurred once in 1 subject each | AEs occurring more frequently than with placebo: oropharyngeal discomfort, shortness of breath (dyspnoea), cough and dry mouth | dose dependence of incidence of AEs: appears not to be dose-dependent | intensity of TEAEs: mild in intensity | serious adverse events: No serious adverse events were reported | tolerability of inhalation: well tolerated, and no subject interrupted the inhalation
